According to article PMC4715686 (Chemical biology & drug design, 2015):

Assays:
rhodesain = rhodesain (Trypanosoma brucei rhodesiense, UniProt Q95PM0); test: Rhodesain inhibition assay; format: biochemical, T. brucei rhodesiense
[1] = test system: T. brucei brucei 427 strain; test: Antitrypanosomal activity, Alamar blue assay; format: cell-based; conditions: for IC50: Trypanosoma brucei, 24 h, read-out: IC50 T. brucei
[2] = Hep G2 cell viability, MTT assay; format: cell-based; conditions: human

| SMILES | IC50 (rhodesain) [nM] | IC50 [1] [nM] | viability at 72 h, 20 µM [2] [%] | inhibitory activity against rhodesain (in words) (rhodesain) | activity against T. brucei (in words) [1] | selectivity for the parasite over Hep G2 cells (in words) ([1]; T. brucei vs Hep G2 cells) |
| --- | --- | --- | --- | --- | --- | --- |
| Nc1ccc(-c2nc3ccc(Cc4ccc5nc(-c6ccc(N)cc6)[nH]c5c4)cc3[nH]2)cc1 [Compound 1, 4,4′-[methylenebis(1H-benzimidazole-6,2-diyl)]-dianiline] | 890 ± 100 | 5800 ± 1000 | 84.7 ± 5.79 | – | – | – |
| O=C(c1ccccc1)c1ccc2[nH]c(-c3ccc(NC(=O)c4ccccc4Cl)cc3)nc2c1 [Compound 7, N-[4-(5-benzoyl-1H-benzimidazol-2-yl)phenyl]-2-chlorobenzamide] | > 20000 | 2830 ± 260 | 86.2 ± 9.67 | did not display any inhibitory activity | active | considerable selectivity |
